Reference: patent US12227802B2, “Nucleotides with a 3′ AOM blocking group” (Illumina Cambridge Limited, priority 2018, dated 2025)

Experiments:
Assay type in all cases: physicochemical
[1] = Deblocking test of 3′ blocked T nucleotides in solution (Pd/THP for AOM, THP for azidomethyl; HPLC); details: 0.1 mM nucleotide, Pd/THP=1/5, 1 mM THP, ethanolamine pH 9.8, room temperature
Protocol: In this example, deblocking tests for 5′-mP 3′-AOM T and the standard 5′-mP 3′-O-azidomethyl T nucleotide were performed individually in a solution unique to each blocking group. Conditions were formulated to mimic Illumina's standard deblock reagent as closely as possible, and follow the same methodology. Concentrations of active deblock reagent, buffer, and nucleoside are kept the same across all tests, but the identity of each component was unique. In this way, the observed difference in rate between the individual deblocking chemistries cannot due to the differences in concentration of formulation.
Nucleotide: 5′-monophosphate 3′-O-azidomethyl T. Active Deblock reagent: tris(hydroxypropyl)phosphine (THP) (1M in 18 mΩ water). (Optional) Additive: Sodium ascorbate (0.1 mM in 18 mΩ water) final conc.=1 mM. Buffer: Ethanolamine pH 9.8 (2M in 18 mΩ water). Quenching reagent: H2O2.
Nucleotide: 5′-monophosphate […]. A stock solution of 3′-AOM T was diluted to 0.1 mM in a 100 mM ethanolamine buffer (pH 9.8), in a glass vial under nitrogen. A stock solution of sodium ascorbate additive was added to a final concentration of 0.1 mM and the solution stirred 5 minutes. To commence the assay, the deblock reagents (Pd/THP=⅕; sodium ascorbate; ethanolamine) were added, to a final concentration of 1 mM THP, to the stirring solution at room temperature. […]

[2] = 3′-O-thiocarbamate blocking groups stability testing in incorporation buffer at 65° C. (HPLC); details: 9-day testing period (FIG. 6)
Protocol: The stability tests for 5′-mP 3′-DMTC T nucleotide was performed side by side in an incorporation buffer solution with standard 5′-mP 3′-O-azidomethyl T nucleotide.
For both 5′-mP 3′-DMTC T and 5′-mP 3′-O-azidomethyl T, the final solution volume was 1 mL and the final concentrations of the corresponding nucleotides were both 0.1 mM. Other components of the aqueous buffer solution include ethanolamine (EA), ethanolamine HCl, NaCl (100 mM), and EDTA (2.5 mM). The buffer solution has the following concentration: 0.5 M EA Buffer, 0.5 M NaCl, 0.01 M EDTA.
200 μL of 10× Buffer solution was added to a 1.7 mL polypropylene snap lock microtube and diluted with the correct volume of 18 mΩ water. The corresponding nucleoside was then added, the vial was sealed and mixed via inversion, gentle stirring or pumping with a micropipette. A 40 μL aliquot was taken and analyzed by HPLC to act as a starting (or t=0) value. The vials are then placed in a pre-heated heating mantle set to 65° C., covered with a thick layer of aluminum foil and left to heat for one month. 40 μL aliquots was taken periodically (weck 1: once daily. Wecks 2-4: 1 every 2 days) and analyzed by HPLC to determine the percentage starting material and the percentage deblocked (3′-OH) nucleotide in the samples. HPLC analysis was performed by measuring the area of the stating nucleotide peak and the 3′OH peak. […]

[3] = 3′-O-thiocarbamate (DMTC) deblocking test in solution (HPLC)
Protocol: In this example, deblocking or deblock tests for 5′-mP 3′-DMTC T and the standard 5′-mP 3′-O-azidomethyl T nucleotide were performed individually in a solution unique to each blocking group. Conditions were formulated to mimic Illumina's standard deblock reagent as closely as possible, and follow the same methodology. Concentrations of active deblock reagent, buffer, and nucleoside are kept the same across all tests, but the identity of each component was unique. In this way, the observed difference in rate between the individual deblocking chemistries cannot due to the differences in concentration of formulation.
Each reaction component was formulated individually as a concentrated stock in 18 mΩ water, stored appropriately, and aliquots combined in a specific order given below. Reaction was commenced by addition of the preformulated deblock reagent. […]
In a 3 mL glass vial was added the preformulated buffer solution followed by preformulated additive solution. […] A 40 μL aliquot was then taken, quenching reagent added and analyzed by HPLC as a reference (or t=0 min) peak. […] At specified time points, 40 μL aliquots were taken and quenched immediately with an appropriate quenching reagent, then analyzed by HPLC to determine the amount of deblocked nucleotide that has occurred at these specified time points. […]

C=CCOCOC1C[C@H](n2cc(C)c(=O)[nH]c2=O)O[C@@H]1COP(=O)(O)O (stereo partly shown) [AOM]
speed improvement in deblocking rate in solution compared to standard azidomethyl blocking group [1]: 10 fold

Cc1cn([C@H]2CC(OC(=S)N(C)C)[C@@H](COP(=O)(O)O)O2)c(=O)[nH]c1=O (stereo partly shown) [DMTC]
stability compared to nucleotide with standard 3′-O-azidomethyl group [2]: improved stability | deblocking with NaIO4 ([3]; 1 mM NaIO4, pH 6.75 phosphate buffer (FIG. 7)): not efficient | deblocking rate with Oxone compared to standard azidomethyl blocking group ([3]; 1 mM Oxone, pH 8.65 phosphate buffer (FIG. 7)): superior deblocking rate
